Read-outs that look alike come from different tables or passages of the source.
Tests used:
[1] = format: physicochemical; details: hang-bag, 24 hours
Procedure: Topotecan diluted in saline (10 ug/ml or 500 ug/ml) or dextrose (6.7 ug/ml or 330 ug/ml) is stable in a hang-bag for 24 hours with at least 95% recovery.

esophageal cancer = details: humans, sole chemotherapeutic agent; cited from earlier work
ovarian cancer = details: humans, sole chemotherapeutic agent; cited from earlier work
DNA topoisomerase I = details: background statement; cited from earlier work
[2] = test system: non-small cell lung carcinoma; details: humans, sole chemotherapeutic agent; cited from earlier work
[3] = format: physicochemical; details: plastic bags, room temperature
Procedure: Stability - Shelf life surveillance of the intact vials is ongoing. Because the single-use lyophilized dosage form contains no antibacterial preservatives, it is advised that the reconstituted solution be discarded eight hours after initial entry into the vial. Further dilutions of the reconstituted solution to concentrations of 0.02 mg/ml and 0.1 mg. ml in 5% Dextrose Injection, USP, ("D5W") or 0.9% Sodium Chloride Injection, USP, ("NS") in plastic bags stored at room temperature yielded the following stability results:
Percentage of Initial Topotecan Remaining in Solution

[4] = in words; cited from earlier work

For `CC[C@@]1(O)C(=O)OCc2c1cc1n(c2=O)Cc2cc3c(CN(C)C)c(O)ccc3nc2-1` [Topotecan, (S)-10[(dimethylamino)methyl]-4-ethyl-4,9-dihydroxy-IH-pyrano[3',4':6,7]indolizino[1,2-b]quinolone-3,14(4H,12H)-dione], which recovery ([1]; dextrose (6.7 ug/ml or 330 ug/ml)) is on record?
Its recovery is “at least 95%”.

What about the recovery ([1]; saline (10 ug/ml or 500 ug/ml)) of the same compound?
Its recovery is “at least 95%”.

And the clinical efficacy (esophageal cancer)?
Its clinical efficacy is “shown clinical efficacy”.

And the clinical efficacy (ovarian cancer)?
Its clinical efficacy is “shown clinical efficacy”.

What about the “inhibition of DNA topoisomerase I” value (DNA topoisomerase I) of the same compound?
The value was “specific inhibitor of DNA topoisomerase I”.

And the clinical efficacy [2]?
Its clinical efficacy is “shown clinical efficacy”.

And the “Percentage of Initial Topotecan Remaining in Solution” value ([3]; D5W (5% Dextrose Injection, USP), 0.02 mg/ml, 0 hrs)?
The value was 100.00 Percentage.

What about the “Percentage of Initial Topotecan Remaining in Solution” value ([3]; D5W (5% Dextrose Injection, USP), 0.1 mg/ml, 0 hrs) of the same compound?
Its value is 100.00 Percentage.

What about the “Percentage of Initial Topotecan Remaining in Solution” value ([3]; NS (0.9% Sodium Chloride Injection, USP), 0.02 mg/ml, 0 hrs) of the same compound?
Its value is 100.00 Percentage.

And the “Percentage of Initial Topotecan Remaining in Solution” value ([3]; NS (0.9% Sodium Chloride Injection, USP), 0.1 mg/ml, 0 hrs)?
The value was 100.00 Percentage.

What about the “Percentage of Initial Topotecan Remaining in Solution” value ([3]; NS (0.9% Sodium Chloride Injection, USP), 0.1 mg/ml, 6 hrs) of the same compound?
The value was 97.71 Percentage.

And the “Percentage of Initial Topotecan Remaining in Solution” value ([3]; NS (0.9% Sodium Chloride Injection, USP), 0.1 mg/ml, 24 hrs)?
The value was 98.30 Percentage.

And the “Percentage of Initial Topotecan Remaining in Solution” value ([3]; NS (0.9% Sodium Chloride Injection, USP), 0.1 mg/ml, 48 hrs)?
The value was 98.35 Percentage.

What about the water solubility [4] of the same compound?
Its water solubility is “water-soluble”.

Source: US5633016A, “Combination chemotherapy” (SmithKline Beecham Corporation, priority 1995, dated 1997)
